Measurements reported in patent US20020137929A1, “1 - (3-heterocyclylphenyl) isothiourea, -isourea, -guanidine and -amidine herbicidal agents” (Intellectual Property Department, BASF Aktiengesellschaft, priority 1998, published 2002).

What was measured:
AMBEL (Ragweed, Common) [1] = assay: Preemergence herbicidal evaluation; type: in vivo, Ambrosia artemisifolia; settings: preemergence, rated 4-5 weeks after treatment, 0-9 scale
Method in brief: (§1)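 Seeds were planted in potting soil in cups, then sprayed preemergence with the test compound in aqueous acetone at about 0.0156 to 0.500 kg per hectare. Cups were kept under greenhouse conditions and visually rated 4–5 weeks after treatment on a 0–9 scale against an untreated control.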

[2] = test system: IPOHE (Morningglory, Ivyleaf); assay: Postemergence herbicidal evaluation; type: in vivo, Ipomoea hederacea; settings: postemergence
Method in brief: (§2)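 Visual 0–9 rating versus control (stand, vigor, malformation, size, chlorosis, overall appearance), taken four to five weeks post-spray. Two-week-old seedlings received roughly 0.0156–0.500 kg/ha active in acetone/water (50/50) with 0.5% TWEEN 20 via nozzle at 40 psi.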

[3] = test system: SAGPY (Arrowhead (Pygmaea)); assay: Preemergence weed control under flooded paddy conditions; type: in vivo, Sagittaria pygmaea; settings: rated 3-4 weeks after treatment
Method in brief: (§3)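 Visual injury scored 0-9 against control three to four weeks post-treatment, greenhouse-grown. Application: acetone/water (50/50) solutions dosed directly into flood water (1.5-3 cm over silt loam, planted top 0.5 cm), roughly 0.0313 to 0.500 kg/ha active ingredient.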

ECHCG (Barnyardgrass) = assay: Preemergence herbicidal evaluation; type: in vivo, Echinochloa crus-galli; settings: preemergence, rated 4-5 weeks after treatment, 0-9 scale
Method in brief: as §1

CASOB (Sicklepod) = assay: Preemergence herbicidal evaluation; type: in vivo, Cassia obtusifolia; settings: preemergence, rated 4-5 weeks after treatment, 0-9 scale
Method in brief: as §1

GALAP (Galium) = assay: Preemergence herbicidal evaluation; type: in vivo, Galium aparine; settings: preemergence, rated 4-5 weeks after treatment, 0-9 scale
Method in brief: as §1

[4] = test system: GLXMAW (Soybean, Williams); assay: Preemergence herbicidal evaluation; type: in vivo, Glycine max, (L.) Merr. cv Williams; settings: preemergence, rated 4-5 weeks after treatment, 0-9 scale
Method in brief: as §1

ABUTH (Velvetleaf) = assay: Preemergence herbicidal evaluation; type: in vivo, Abutilon theophrasti; settings: preemergence, rated 4-5 weeks after treatment, 0-9 scale
Method in brief: as §1

ZEAMX (Corn, Field) = assay: Postemergence herbicidal evaluation; type: in vivo, Zea mays; settings: postemergence
Method in brief: as §2

SETVI (Foxtail, Green) = assay: Preemergence herbicidal evaluation; type: in vivo, Setaria viridis; settings: preemergence, rated 4-5 weeks after treatment, 0-9 scale
Method in brief: as §1

[5] = test system: ECHORC (Watergrass (Calif.)); assay: Postemergence weed control under flooded paddy conditions; type: in vivo, Echinochloa oryzoides; settings: postemergence weeds, rated 3 to 4 weeks after treatment
Method in brief: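 With weeds 3 to 5 cm tall and rice at the 1.5 to 2.5 leaf stage, containers were flooded and water held 1.5 to 3 cm above soil. Compounds in 50/50 v/v aqueous/acetone went into the flood water at about 0.0313 to 0.500 kg/ha a.i. Effects were visually rated 0–9 against controls after three to four weeks in the greenhouse.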

AMBEL (Ragweed, Common) [6] = assay: Postemergence herbicidal evaluation; type: in vivo, Ambrosia artemisifolia; settings: postemergence
Method in brief: as §2

CYPSE (Flatsedge) = assay: Preemergence weed control under flooded paddy conditions; type: in vivo, Cyperus serotinus; settings: rated 3-4 weeks after treatment
Method in brief: as §3

[7] = test system: GLXMAW (Soybean, Williams); assay: Postemergence herbicidal evaluation; type: in vivo, Glycine max, (L.) Merr. cv Williams; settings: postemergence
Method in brief: as §2

C=CCN1C(=O)C(CC(=O)NOC)SC1=Nc1cc(-n2c(=O)cc(C(F)(F)F)n(C)c2=O)c(F)cc1Cl (centres unmarked) [Compound 85]
8.5: ZEAMX herbicidal rating (ZEAMX (Corn, Field); rate 0.1250 kg/ha)
2.0: GLXMAW rating ([4]; 0.1250 kg/ha) | GLXMAW rating ([4]; 0.2500 kg/ha) | CYPSE herbicidal effect rating (CYPSE (Flatsedge); 0.0625 kg/ha) | CYPSE herbicidal effect rating (CYPSE (Flatsedge); 0.1250 kg/ha)
9.0: AMBEL rating (AMBEL (Ragweed, Common) [1]; 0.2500 kg/ha) | AMBEL rating (AMBEL (Ragweed, Common) [1]; 0.5000 kg/ha) | IPOHE herbicidal rating ([2]; rate 0.0156 kg/ha) | IPOHE herbicidal rating ([2]; rate 0.0313 kg/ha) | IPOHE herbicidal rating ([2]; rate 0.0625 kg/ha) | IPOHE herbicidal rating ([2]; rate 0.1250 kg/ha) | SAGPY herbicidal effect rating ([3]; 0.1250 kg/ha) | SAGPY herbicidal effect rating ([3]; 0.2500 kg/ha) | CASOB rating (CASOB (Sicklepod); 0.5000 kg/ha) | GALAP rating (GALAP (Galium); 0.5000 kg/ha) | GLXMAW rating ([4]; 0.5000 kg/ha) | ABUTH rating (ABUTH (Velvetleaf); 0.0313 kg/ha) | ABUTH rating (ABUTH (Velvetleaf); 0.0625 kg/ha) | ABUTH rating (ABUTH (Velvetleaf); 0.1250 kg/ha) | ABUTH rating (ABUTH (Velvetleaf); 0.2500 kg/ha) | ABUTH rating (ABUTH (Velvetleaf); 0.5000 kg/ha) | SETVI rating (SETVI (Foxtail, Green); 0.2500 kg/ha) | SETVI rating (SETVI (Foxtail, Green); 0.5000 kg/ha) | Herbicidal rating ECHORC ([5]; Rate 0.2500 kg/ha) | AMBEL herbicidal rating (AMBEL (Ragweed, Common) [6]; rate 0.0156 kg/ha) | AMBEL herbicidal rating (AMBEL (Ragweed, Common) [6]; rate 0.0313 kg/ha) | AMBEL herbicidal rating (AMBEL (Ragweed, Common) [6]; rate 0.0625 kg/ha) | AMBEL herbicidal rating (AMBEL (Ragweed, Common) [6]; rate 0.1250 kg/ha) | CYPSE herbicidal effect rating (CYPSE (Flatsedge); 0.2500 kg/ha)
5.0: Herbicidal rating ECHORC ([5]; Rate 0.0625 kg/ha)
7.5: ZEAMX herbicidal rating (ZEAMX (Corn, Field); rate 0.0625 kg/ha) | GLXMAW herbicidal rating ([7]; rate 0.1250 kg/ha)
4.0: ECHCG rating (ECHCG (Barnyardgrass); 0.5000 kg/ha) | GALAP rating (GALAP (Galium); 0.1250 kg/ha) | ZEAMX herbicidal rating (ZEAMX (Corn, Field); rate 0.0156 kg/ha) | Herbicidal rating ECHORC ([5]; Rate 0.0313 kg/ha)
0.0: AMBEL rating (AMBEL (Ragweed, Common) [1]; 0.0156 kg/ha) | AMBEL rating (AMBEL (Ragweed, Common) [1]; 0.0313 kg/ha) | ECHCG rating (ECHCG (Barnyardgrass); 0.0156 kg/ha) | ECHCG rating (ECHCG (Barnyardgrass); 0.0313 kg/ha) | ECHCG rating (ECHCG (Barnyardgrass); 0.0625 kg/ha) | ECHCG rating (ECHCG (Barnyardgrass); 0.1250 kg/ha) | ECHCG rating (ECHCG (Barnyardgrass); 0.2500 kg/ha) | CASOB rating (CASOB (Sicklepod); 0.0156 kg/ha) | CASOB rating (CASOB (Sicklepod); 0.0313 kg/ha) | CASOB rating (CASOB (Sicklepod); 0.0625 kg/ha) | CASOB rating (CASOB (Sicklepod); 0.1250 kg/ha) | CASOB rating (CASOB (Sicklepod); 0.2500 kg/ha) | GALAP rating (GALAP (Galium); 0.0156 kg/ha) | GALAP rating (GALAP (Galium); 0.0313 kg/ha) | GALAP rating (GALAP (Galium); 0.0625 kg/ha) | GLXMAW rating ([4]; 0.0156 kg/ha) | GLXMAW rating ([4]; 0.0313 kg/ha) | GLXMAW rating ([4]; 0.0625 kg/ha) | ABUTH rating (ABUTH (Velvetleaf); 0.0156 kg/ha) | SETVI rating (SETVI (Foxtail, Green); 0.0156 kg/ha) | SETVI rating (SETVI (Foxtail, Green); 0.0313 kg/ha) | SETVI rating (SETVI (Foxtail, Green); 0.0625 kg/ha) | SETVI rating (SETVI (Foxtail, Green); 0.1250 kg/ha) | CYPSE herbicidal effect rating (CYPSE (Flatsedge); 0.0313 kg/ha)
3.0: AMBEL rating (AMBEL (Ragweed, Common) [1]; 0.0625 kg/ha) | SAGPY herbicidal effect rating ([3]; 0.0313 kg/ha) | SAGPY herbicidal effect rating ([3]; 0.0625 kg/ha)
6.5: ZEAMX herbicidal rating (ZEAMX (Corn, Field); rate 0.0313 kg/ha)
4.5: GLXMAW herbicidal rating ([7]; rate 0.0156 kg/ha)
6.0: GALAP rating (GALAP (Galium); 0.2500 kg/ha) | GLXMAW herbicidal rating ([7]; rate 0.0313 kg/ha) | GLXMAW herbicidal rating ([7]; rate 0.0625 kg/ha)
7.0: AMBEL rating (AMBEL (Ragweed, Common) [1]; 0.1250 kg/ha) | Herbicidal rating ECHORC ([5]; Rate 0.1250 kg/ha)

CN1C(=O)C(CC(N)=O)SC1=Nc1cc(-n2c(=O)cc(C(F)(F)F)n(C)c2=O)c(F)cc1Cl (centres unmarked) [Compound 92, 2-{{2-Chloro-5-[3,6-dihydro-3-methyl-2,6-dioxo-4-(trifluoromethyl)-1(2H)-pyrimidinyl]-4-fluorophenyl}imino}-3-methyl-4-oxo-5-thiazolidineacetamide]
6.0: ZEAMX herbicidal rating (ZEAMX (Corn, Field); rate 0.0158 kg/ha)
7.5: ZEAMX herbicidal rating (ZEAMX (Corn, Field); rate 0.0315 kg/ha) | GLXMAW herbicidal rating ([7]; rate 0.0158 kg/ha)
5.0: AMBEL rating (AMBEL (Ragweed, Common) [1]; 0.1250 kg/ha) | GLXMAW rating ([4]; 0.2500 kg/ha)
4.0: SAGPY herbicidal effect rating ([3]; 0.1250 kg/ha)
0.0: AMBEL rating (AMBEL (Ragweed, Common) [1]; 0.0156 kg/ha) | AMBEL rating (AMBEL (Ragweed, Common) [1]; 0.0313 kg/ha) | AMBEL rating (AMBEL (Ragweed, Common) [1]; 0.0625 kg/ha) | SAGPY herbicidal effect rating ([3]; 0.0313 kg/ha) | SAGPY herbicidal effect rating ([3]; 0.0625 kg/ha) | ECHCG rating (ECHCG (Barnyardgrass); 0.0156 kg/ha) | ECHCG rating (ECHCG (Barnyardgrass); 0.0313 kg/ha) | ECHCG rating (ECHCG (Barnyardgrass); 0.0625 kg/ha) | ECHCG rating (ECHCG (Barnyardgrass); 0.1250 kg/ha) | ECHCG rating (ECHCG (Barnyardgrass); 0.2500 kg/ha) | CASOB rating (CASOB (Sicklepod); 0.0156 kg/ha) | CASOB rating (CASOB (Sicklepod); 0.0313 kg/ha) | CASOB rating (CASOB (Sicklepod); 0.0625 kg/ha) | GALAP rating (GALAP (Galium); 0.0156 kg/ha) | GALAP rating (GALAP (Galium); 0.0313 kg/ha) | GALAP rating (GALAP (Galium); 0.0625 kg/ha) | GLXMAW rating ([4]; 0.0156 kg/ha) | GLXMAW rating ([4]; 0.0313 kg/ha) | GLXMAW rating ([4]; 0.0625 kg/ha) | ABUTH rating (ABUTH (Velvetleaf); 0.0156 kg/ha) | SETVI rating (SETVI (Foxtail, Green); 0.0156 kg/ha) | SETVI rating (SETVI (Foxtail, Green); 0.0313 kg/ha) | SETVI rating (SETVI (Foxtail, Green); 0.0625 kg/ha) | SETVI rating (SETVI (Foxtail, Green); 0.1250 kg/ha) | Herbicidal rating ECHORC ([5]; Rate 0.0313 kg/ha) | Herbicidal rating ECHORC ([5]; Rate 0.0625 kg/ha) | AMBEL herbicidal rating (AMBEL (Ragweed, Common) [6]; rate 0.0158 kg/ha)
2.0: Herbicidal rating ECHORC ([5]; Rate 0.1250 kg/ha)
3.0: CASOB rating (CASOB (Sicklepod); 0.2500 kg/ha) | ABUTH rating (ABUTH (Velvetleaf); 0.0313 kg/ha) | Herbicidal rating ECHORC ([5]; Rate 0.2500 kg/ha)
1.0: GLXMAW rating ([4]; 0.1250 kg/ha)
9.0: AMBEL rating (AMBEL (Ragweed, Common) [1]; 0.2500 kg/ha) | IPOHE herbicidal rating ([2]; rate 0.0158 kg/ha) | IPOHE herbicidal rating ([2]; rate 0.0315 kg/ha) | IPOHE herbicidal rating ([2]; rate 0.0630 kg/ha) | SAGPY herbicidal effect rating ([3]; 0.2500 kg/ha) | GALAP rating (GALAP (Galium); 0.1250 kg/ha) | GALAP rating (GALAP (Galium); 0.2500 kg/ha) | ABUTH rating (ABUTH (Velvetleaf); 0.0625 kg/ha) | ABUTH rating (ABUTH (Velvetleaf); 0.1250 kg/ha) | ABUTH rating (ABUTH (Velvetleaf); 0.2500 kg/ha) | SETVI rating (SETVI (Foxtail, Green); 0.2500 kg/ha) | AMBEL herbicidal rating (AMBEL (Ragweed, Common) [6]; rate 0.0315 kg/ha) | AMBEL herbicidal rating (AMBEL (Ragweed, Common) [6]; rate 0.0630 kg/ha) | CYPSE herbicidal effect rating (CYPSE (Flatsedge); 0.0313 kg/ha) | CYPSE herbicidal effect rating (CYPSE (Flatsedge); 0.0625 kg/ha) | CYPSE herbicidal effect rating (CYPSE (Flatsedge); 0.1250 kg/ha) | CYPSE herbicidal effect rating (CYPSE (Flatsedge); 0.2500 kg/ha) | GLXMAW herbicidal rating ([7]; rate 0.0315 kg/ha) | GLXMAW herbicidal rating ([7]; rate 0.0630 kg/ha)
8.0: ZEAMX herbicidal rating (ZEAMX (Corn, Field); rate 0.0630 kg/ha)
